In the NIST ThermoML archive (doi:10.1021/acs.jced.7b00221):

Test: xn = mol fraction of the nth substance listed
Conditions: 100 kPa, Liquid; for viscosity: Cone and plate viscometry; for mass density: Vibrating tube method

CCCCCCCCCCCCCC[P+](CCCCCC)(CCCCCC)CCCCCC.N#Cc1ccc[n-]1 [trihexyl(tetradecyl)phosphonium 2-cyanopyrrolide] + CCCCCC[n+]1ccn(C)c1.O=S(=O)([N-]S(=O)(=O)C(F)(F)F)C(F)(F)F
viscosity [mPa·s]
Conditions	278.15 K	283.15 K	288.15 K	293.15 K	298.15 K	303.15 K	308.15 K	313.15 K	318.15 K	323.15 K
x1 = 0.1	337	240	176	132	101	80	64	52	–	–
x1 = 0.2	520	363	259	190	144	111	88	71	58	–
x1 = 0.3	662	455	319	229	170	129	100	79	64	52
x1 = 0.4	900	608	420	298	217	162	125	97	78	63
x1 = 0.496	1216	815	558	392	284	210	160	123	98	79
x1 = 0.6	1407	938	638	445	319	236	177	136	107	85
x1 = 0.698	1684	1117	755	525	376	275	207	158	124	99
x1 = 0.8	1749	1160	785	546	391	286	214	163	128	102
x1 = 0.898	1844	1223	830	578	414	303	228	173	135	108
x1 = 1	1764	1179	804	563	404	297	223	170	133	106

CCCCCCn1cc[n+](C)c1C.O=[N+]([O-])c1cn[n-]c1 [1-hexyl-2,3-dimethylimidazolium 4-nitropyrazolide] + CCCCCCCCCCCCCC[P+](CCCCCC)(CCCCCC)CCCCCC.O=S(=O)([N-]S(=O)(=O)C(F)(F)F)C(F)(F)F
Conditions	mass density, x1 = 0.25 [kg/m3]	mass density, x1 = 0.501 [kg/m3]	mass density, x1 = 0.749 [kg/m3]	viscosity, x1 = 0.098 [mPa·s]	viscosity, x1 = 0.303 [mPa·s]	viscosity, x1 = 0.5 [mPa·s]	viscosity, x1 = 0.7 [mPa·s]	viscosity, x1 = 0.898 [mPa·s]
278.15 K	–	–	–	1280	1562	2212	3692	7584
283.15 K	1081.8	1090.2	1104.2	871	1040	1418	2223	4009
288.15 K	1078.2	1086.7	1100.5	606	707	933	1385	2241
293.15 K	1074.6	1083.2	1097	434	495	636	897	1330
295.15 K	1073.2	1081.7	1095.7	–	–	–	–	–
298.15 K	1071.1	1079.7	1093.6	319	357	447	605	830
303.15 K	1067.5	1076.2	1090.3	239	264	324	422	545
308.15 K	1063.9	1072.7	1086.9	184	200	240	304	373
313.15 K	1060.4	1069.3	1083.5	144	154	182	223	263
318.15 K	1057	1065.9	1080.2	115	121	142	169	192
323.15 K	1053.5	1062.6	1077	93	97	112	131	144
328.15 K	1050	1059.2	1073.7	–	–	–	–	–
333.15 K	1046.5	1055.8	1070.5	–	–	–	–	–
338.15 K	1043	1052.4	1067.2	–	–	–	–	–
343.15 K	1039.5	1049	1064	–	–	–	–	–
348.15 K	1036.1	1045.7	1060.7	–	–	–	–	–
353.15 K	1032.6	1042.3	1057.5	–	–	–	–	–
